# Experiments:
# Test in all cases: Test D controlled growth environment herbicide test, pre- and postemergence
# Assay type in all cases: in vivo
# [1] = test system: Russian thistle (Salsola kali)
# In short: (§1)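 Pre-emergence: seeds sown in silt loam soil were sprayed with compound in a non-phytotoxic solvent mix containing surfactant. Post-emergence: plants at 2 to 18 cm (1- to 4-leaf stage) in peat moss/vermiculite medium got the same formulation. Visual 0–100 rating versus controls after 14 to 21 d.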
# [2] = test system: barley, spring (spring barley, Hordeum vulgare)
# In short: as §1
# [3] = test system: chamomile (scentless chamomile, Matricaria inodora)
# In short: as §1
# [4] = test system: chickweed (common chickweed, Stellaria media)
# In short: as §1
# [5] = test system: deadnettle (henbit deadnettle, Lamium amplexicaule)
# In short: as §1
# [6] = test system: field poppy (Papaver rhoeas)
# In short: as §1
# [7] = test system: field violet (Viola arvensis)
# In short: as §1
# [8] = test system: kochia (Kochia scoparia)
# In short: as §1
# [9] = test system: mustard, wild (wild mustard, Sinapis arvensis)
# In short: as §1
# [10] = test system: oat, wild (wild oat, Avena fatua)
# In short: as §1
# [11] = test system: oilseed rape (Brassica napus)
# In short: as §1
# [12] = test system: radish, wild (wild radish, Raphanus raphanistrum)
# In short: as §1
# [13] = test system: speedwell (bird's-eye speedwell, Veronica persica)
# In short: as §1
# [14] = test system: wheat, winter (winter wheat, Triticum aestivum)
# In short: as §1
# [15] = Postemergence, 31 g ai/ha, scale 0 to 100 (0 no effect, 100 complete control)
# [16] = Postemergence, 125 g ai/ha, visual rating on scale 0 (no effect) to 100 (complete control), 14 to 21 d
# [17] = Postemergence, 250 g ai/ha, scale 0 to 100 (0 no effect, 100 complete control)
# [18] = Preemergence, 62 g ai/ha, scale 0 to 100 (0 no effect, 100 complete control)
# [19] = Preemergence, 125 g ai/ha, scale 0 to 100 (0 no effect, 100 complete control)
# [20] = Preemergence, 250 g ai/ha, scale 0 to 100, 0 no effect, 100 complete control
# [21] = postemergence, 62 g ai/ha, scale 0 to 100, 0 no effect, 100 complete control
structure (smiles),measurement,setting,value
Cc1nn(C)c(=O)c(-c2c(C)sc3c(C)cc(Cl)cc23)c1O [Compound 35],Russian Thistle plant response rating,[1]; [15],70
same,"Plant response rating, Russian Thistle",[1]; [16],85
same,"Plant response rating, Russian Thistle",[1]; [17],95
same,"Plant response rating (scale of 0 to 100), Russian Thistle","[1]; Preemergence, 31 g ai/ha",0
same,"Plant response rating, Russian Thistle",[1]; [18],0
same,"Plant response rating, Russian Thistle",[1]; [19],0
same,"Plant response rating, Russian Thistle",[1]; [20],25
same,"Plant response rating, Russian Thistle",[1]; [21],75
same,"Plant response rating, Barley, Spring",[2]; [15],0
same,"Plant response rating, Barley, Spring",[2]; [16],10
same,"Plant response rating, Barley, Spring",[2]; [17],15
same,"Plant response rating (scale of 0 to 100), Barley, Spring","[2]; Preemergence, 31 g ai/ha",0
same,"Plant response rating, Barley, Spring",[2]; [18],0
same,"Plant response rating, Barley, Spring",[2]; [19],0
same,"Barley, Spring plant response rating",[2]; [20],0
same,"Plant response rating, Barley, Spring",[2]; [21],0
same,Chamomile plant response rating,[3]; [15],100
same,"Plant response rating, Chamomile",[3]; [16],100
same,"Plant response rating, Chamomile",[3]; [17],100
same,"Plant response rating (scale of 0 to 100), Chamomile","[3]; Preemergence, 31 g ai/ha",100
same,"Plant response rating, Chamomile",[3]; [18],100
same,"Plant response rating, Chamomile",[3]; [19],100
same,"Plant response rating, Chamomile",[3]; [20],100
same,"Plant response rating, Chamomile",[3]; [21],100
same,Chickweed plant response rating,[4]; [15],90
same,"Plant response rating, Chickweed",[4]; [16],100
same,"Plant response rating, Chickweed",[4]; [17],100
same,"Plant response rating (scale of 0 to 100), Chickweed","[4]; Preemergence, 31 g ai/ha",95
same,"Plant response rating, Chickweed",[4]; [18],95
same,"Plant response rating, Chickweed",[4]; [19],100
same,"Plant response rating, Chickweed",[4]; [20],100
same,"Plant response rating, Chickweed",[4]; [21],100
same,Deadnettle plant response rating,[5]; [15],15
same,"Plant response rating, Deadnettle",[5]; [16],20
same,"Plant response rating, Deadnettle",[5]; [17],80
same,"Plant response rating (scale of 0 to 100), Deadnettle","[5]; Preemergence, 31 g ai/ha",0
same,"Plant response rating, Deadnettle",[5]; [18],15
same,"Plant response rating, Deadnettle",[5]; [19],55
same,"Plant response rating, Deadnettle",[5]; [20],80
same,"Plant response rating, Deadnettle",[5]; [21],20
same,Field Poppy plant response rating,[6]; [15],100
same,"Plant response rating, Field Poppy",[6]; [16],100
same,"Plant response rating, Field Poppy",[6]; [17],100
same,"Plant response rating (scale of 0 to 100), Field Poppy","[6]; Preemergence, 31 g ai/ha",75
same,"Plant response rating, Field Poppy",[6]; [18],85
same,"Plant response rating, Field Poppy",[6]; [19],100
same,"Plant response rating, Field Poppy",[6]; [20],100
same,"Plant response rating, Field Poppy",[6]; [21],100
same,Field Violet plant response rating,[7]; [15],65
same,"Plant response rating, Field Violet",[7]; [16],75
same,"Plant response rating, Field Violet",[7]; [17],98
same,"Plant response rating (scale of 0 to 100), Field Violet","[7]; Preemergence, 31 g ai/ha",15
same,"Plant response rating, Field Violet",[7]; [18],75
same,"Plant response rating, Field Violet",[7]; [19],85
same,"Plant response rating, Field Violet",[7]; [20],100
same,"Plant response rating, Field Violet",[7]; [21],75
same,Kochia plant response rating,[8]; [15],25
same,"Plant response rating, Kochia",[8]; [16],65
same,"Plant response rating, Kochia",[8]; [17],70
same,"Plant response rating (scale of 0 to 100), Kochia","[8]; Preemergence, 31 g ai/ha",0
same,"Plant response rating, Kochia",[8]; [18],0
same,"Plant response rating, Kochia",[8]; [19],20
same,"Plant response rating, Kochia",[8]; [20],25
same,"Plant response rating, Kochia",[8]; [21],20
same,"Mustard, Wild plant response rating",[9]; [15],98
same,"Plant response rating, Mustard, Wild",[9]; [16],100
same,"Plant response rating, Mustard, Wild",[9]; [17],100
same,"Plant response rating (scale of 0 to 100), Mustard, Wild","[9]; Preemergence, 31 g ai/ha",85
same,"Plant response rating, Mustard, Wild",[9]; [18],100
same,"Plant response rating, Mustard, Wild",[9]; [19],100
same,"Plant response rating, Mustard, Wild",[9]; [20],100
same,"Plant response rating, Mustard, Wild",[9]; [21],100
same,"Oat, Wild plant response rating",[10]; [15],85
same,"Plant response rating, Oat, Wild",[10]; [16],85
same,"Plant response rating, Oat, Wild",[10]; [17],98
same,"Plant response rating (scale of 0 to 100), Oat, Wild","[10]; Preemergence, 31 g ai/ha",75
same,"Plant response rating, Oat, Wild",[10]; [18],80
same,"Plant response rating, Oat, Wild",[10]; [19],85
same,"Plant response rating, Oat, Wild",[10]; [20],95
same,"Plant response rating, Oat, Wild",[10]; [21],90
same,Oilseed Rape plant response rating,[11]; [15],95
same,"Plant response rating, Oilseed Rape",[11]; [16],100
same,"Plant response rating, Oilseed Rape",[11]; [17],100
same,"Plant response rating (scale of 0 to 100), Oilseed Rape","[11]; Preemergence, 31 g ai/ha",0
same,"Plant response rating, Oilseed Rape",[11]; [18],10
same,"Plant response rating, Oilseed Rape",[11]; [19],65
same,"Plant response rating, Oilseed Rape",[11]; [20],100
same,"Plant response rating, Oilseed Rape",[11]; [21],98
same,"Radish, Wild plant response rating",[12]; [15],85
same,"Plant response rating, Radish, Wild",[12]; [16],100
same,"Plant response rating, Radish, Wild",[12]; [17],100
same,"Plant response rating (scale of 0 to 100), Radish, Wild","[12]; Preemergence, 31 g ai/ha",35
same,"Plant response rating, Radish, Wild",[12]; [18],100
same,"Plant response rating, Radish, Wild",[12]; [19],100
same,"Plant response rating, Radish, Wild",[12]; [20],100
same,"Plant response rating, Radish, Wild",[12]; [21],100
same,Speedwell plant response rating,[13]; [15],70
same,"Plant response rating, Speedwell",[13]; [16],80
same,"Plant response rating, Speedwell",[13]; [17],100
same,"Plant response rating (scale of 0 to 100), Speedwell","[13]; Preemergence, 31 g ai/ha",0
same,"Plant response rating, Speedwell",[13]; [18],75
same,"Plant response rating, Speedwell",[13]; [19],100
same,"Plant response rating, Speedwell",[13]; [20],100
same,"Plant response rating, Speedwell",[13]; [21],75
same,"Wheat, Winter plant response rating",[14]; [15],10
same,"Plant response rating, Wheat, Winter",[14]; [16],15
same,"Plant response rating, Wheat, Winter",[14]; [17],20
same,"Plant response rating (scale of 0 to 100), Wheat, Winter","[14]; Preemergence, 31 g ai/ha",0
same,"Plant response rating, Wheat, Winter",[14]; [18],0
same,"Plant response rating, Wheat, Winter",[14]; [19],0
same,"Plant response rating, Wheat, Winter",[14]; [20],10
same,"Plant response rating, Wheat, Winter",[14]; [21],15

# Source: US10597388B2, “Pyridazinone herbicides” (FMC CORPORATION, priority 2014, dated 2020)
